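Each compound was tested at five concentrations against cells in 96-well plates for 48 hours. GI50: concentration for 50% inhibition of growth.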 Active and inactive are the calls of the source. No stated cut-off is given here; in the data, active = GI50 up to about 1.1 µM and inactive = higher.
What was measured:
Assay in all cases: growth of human tumour cells (NCI), 48 h
A498 = system: A498
CCRF-CEM = system: CCRF-CEM
DU-145 = system: DU-145
SW-620 = system: SW-620
SN12C = system: SN12C
SK-MEL-28 = system: SK-MEL-28
Malme-3M = system: Malme-3M
A549 = system: A549
CAKI-1 = system: CAKI-1
MCF7 = system: MCF7
OVCAR-8 = system: OVCAR-8
786-0 = system: 786-0
ACHN = system: ACHN
SR = system: SR
OVCAR-4 = system: OVCAR-4
U-251 = system: U-251
OVCAR-5 = system: OVCAR-5
HCC 2998 = system: HCC 2998
SF-539 = system: SF-539
RXF 393 = system: RXF 393

Measured: GI50

Cc1ccc(-n2cnc(C(=N)C#N)c2N)cc1
inactive: A498 > 100 µM | CCRF-CEM > 100 µM | DU-145 > 100 µM | SW-620 > 100 µM | SN12C > 100 µM | SK-MEL-28 > 100 µM | Malme-3M > 100 µM | A549 > 100 µM | CAKI-1 > 100 µM | MCF7 > 100 µM | OVCAR-8 > 100 µM | 786-0 > 100 µM | ACHN > 100 µM | SR > 100 µM | OVCAR-4 > 100 µM | U-251 > 100 µM | OVCAR-5 > 100 µM | HCC 2998 > 100 µM | SF-539 > 100 µM

COc1cc(S(=O)(=O)Nc2nc(-c3ccc(N4C(=O)/C(=C/c5ccccc5)N=C4c4ccccc4)cc3)cs2)ccc1Cl
inactive: A498 31.3 µM | CCRF-CEM 34.6 µM | DU-145 > 100 µM | SW-620 55.1 µM | SN12C 45 µM | SK-MEL-28 54.7 µM | Malme-3M 30.8 µM | A549 > 100 µM | CAKI-1 > 100 µM | MCF7 35.6 µM | OVCAR-8 44.4 µM | 786-0 63.5 µM | ACHN > 100 µM | SR 36.1 µM | OVCAR-4 31.3 µM | U-251 36 µM | OVCAR-5 > 100 µM | RXF 393 32.1 µM | SF-539 41.1 µM

Cc1ccc(-c2nc(C)c(C(=O)Nc3ccc(Cl)cc3)s2)cc1
inactive: A498 14.3 µM | CCRF-CEM > 100 µM | DU-145 > 100 µM | SW-620 41.7 µM | SN12C 31.4 µM | SK-MEL-28 > 100 µM | Malme-3M 36.4 µM | A549 61.7 µM | CAKI-1 20 µM | MCF7 > 100 µM | OVCAR-8 18.8 µM | 786-0 15.2 µM | ACHN 18.4 µM | SR > 100 µM | OVCAR-4 18.3 µM | U-251 22.1 µM | OVCAR-5 82.2 µM | SF-539 29.9 µM

O=C(CN1CCOCC1)Nc1ccc2c(c1)C1Oc3ccccc3CC1CO2 (stereo not given)
inactive: A498 > 100 µM | CCRF-CEM > 100 µM | DU-145 > 100 µM | SW-620 > 100 µM | SN12C > 100 µM | Malme-3M > 100 µM | A549 > 100 µM | CAKI-1 > 100 µM | MCF7 > 100 µM | OVCAR-8 > 100 µM | 786-0 > 100 µM | ACHN > 100 µM | SR > 100 µM | U-251 > 100 µM | OVCAR-5 > 100 µM | HCC 2998 > 100 µM | SF-539 > 100 µM

CC1(C)CN=C(Nc2cccc(C(F)(F)F)c2)S1
inactive: CCRF-CEM > 100 µM | DU-145 > 100 µM | SW-620 > 100 µM | SN12C > 100 µM | SK-MEL-28 > 100 µM | Malme-3M > 100 µM | A549 > 100 µM | CAKI-1 > 100 µM | MCF7 > 100 µM | OVCAR-8 > 100 µM | 786-0 > 100 µM | ACHN > 100 µM | SR 40.2 µM | OVCAR-4 > 100 µM | U-251 > 100 µM | OVCAR-5 > 100 µM | HCC 2998 > 100 µM | RXF 393 > 100 µM | SF-539 > 100 µM

COc1ccc(S(=O)(=O)NC(CCC(=O)NN)C(=O)NN)cc1 (stereo not given)
inactive: A498 > 100 µM | CCRF-CEM > 100 µM | DU-145 > 100 µM | SW-620 > 100 µM | SN12C > 100 µM | SK-MEL-28 > 100 µM | Malme-3M > 100 µM | A549 > 100 µM | CAKI-1 > 100 µM | MCF7 > 100 µM | OVCAR-8 > 100 µM | 786-0 > 100 µM | ACHN > 100 µM | SR > 100 µM | OVCAR-4 > 100 µM | U-251 > 100 µM | OVCAR-5 > 100 µM | SF-539 > 100 µM

COC(=O)C1(Cc2ccc3c(c2)CCC3)Cc2ccccc2C1O (stereo not given)
inactive: A498 18.2 µM | CCRF-CEM 13.1 µM | DU-145 39.4 µM | SW-620 17.3 µM | SN12C 15.2 µM | SK-MEL-28 16.9 µM | Malme-3M 18.1 µM | A549 20.5 µM | CAKI-1 23.8 µM | MCF7 24.3 µM | OVCAR-8 18.6 µM | 786-0 16.3 µM | ACHN 18.3 µM | SR 26.4 µM | OVCAR-4 13.9 µM | U-251 16.8 µM | OVCAR-5 28.6 µM | HCC 2998 15.3 µM | SF-539 17.5 µM

CN(C)CCOc1ccc2[nH]c(C(=O)N3CC(CCl)c4c3cc([N+](=O)[O-])c3ccccc43)cc2c1 (stereo not given)
inactive: A498 2.94 µM | CCRF-CEM 1.58 µM | DU-145 2.55 µM | SW-620 2.17 µM | SK-MEL-28 1.72 µM | Malme-3M 1.94 µM | CAKI-1 2.79 µM | MCF7 1.76 µM | OVCAR-8 1.6 µM | 786-0 2.1 µM | ACHN 1.95 µM | SR 1.72 µM | U-251 2.06 µM | OVCAR-5 2.32 µM | RXF 393 1.55 µM | SF-539 1.69 µM

From ChEMBL document CHEMBL1201862, “PubChem BioAssay data set” (2004)
